US20060093628A1, “Protein aggregate magnesium-ammonium phospholinoleate-palmitoleate anhydride immonomodulator, its production process and formulation” (priority 2004, published 2006)

Experiments:
[1] = tested on: Walker 256 tumoral cells; test: Walker 256 tumor in female Wistar rats; assay type: in vivo; settings: daily subcutaneous doses of 0.5 mg/kg
[2] = Toxicity in tufted capuchin monkey, 30 days; assay type: in vivo, tufted capuchin monkey (Cebus apella); settings: doses up to 30 mg/kg
Text: (§1) e) In vivo toxicologic properties.

[3] = tested on: granulocyte-macrophage precursor cells (CFU-GM); test: Granulocyte-macrophage precursor cells (CFU-GM) in mice with Ehrlich ascitic tumor; assay type: in vivo, Balb/c mice
[4] = rat, in vivo, ip, 750 mg/kg
Protocol: The bioavailability of the compound of the present invention was evaluated in Wistar rats by administering a single intraperitoneal dose of 750 mg/kg.

[5] = tested on: cytokines (IL-2, IFN, IL-4, IL-10); test: Cytokines in ConA-stimulated splenic cell cultures from mice with Ehrlich ascitic tumor; assay type: in vivo, Balb/c mice; settings: 5.0 mg/kg for 7 days
Protocol: (§2) Treatment of Balb/c mice, inoculated with Ehrlich ascitic tumor, with 5.0 mg/kg of the compound of the present invention for a period of 7 days was also able to modulate the functional ability of mature immunocompetent cells, supplying additional evidence about the action mechanisms of the compound. This treatment protocol stimulated the proliferative ability of lymphocytes and the cytotoxicity mediated by natural killer (NK) cells.

[6] = tested on: lymphocytes and natural killer (NK) cells; test: Functional ability of immunocompetent cells in mice with Ehrlich ascitic tumor; assay type: in vivo, Balb/c mice; settings: 5.0 mg/kg for 7 days
Protocol: as §2

[7] = Toxicity in mice, single doses; assay type: in vivo
Text: as §1

[8] = tested on: granulocyte-macrophage precursor cells in the bone marrow; test: In vitro growth and differentiation of bone marrow granulocyte-macrophage precursor cells; assay type: cell-based; settings: bone marrow from normal donor Balb/c mice
[9] = tested on: Walker 256 tumoral cells; test: Walker 256 tumor in gamma-irradiated immunodepressed Wistar rats; assay type: in vivo; settings: rats exposed to 4 Gy gamma radiation, subcutaneous administration
Text: c) Immunomodulatory properties.

[10] = tested on: plasmacytoma; test: Subcutaneously inoculated plasmacytoma in Balb/c mice; assay type: in vivo; settings: 5.0 mg/kg intraperitoneal, 3 doses per week, 7 weeks
Text: (§3) b) Antitumoral properties through immune response modulation.

[11] = tested on: cytokines (IL-2, IFN); test: Cytokines in spleen cell cultures from mice infected with L. monocytogenes; assay type: in vivo, Balb/c mice; settings: pre-treatment with 5.0 mg/kg; culture of spleen cells
Protocol: Levels of the same cytokines found in Balb/c mice infected with L. monocytogenes and subjected to pre-treatment with 5.0 mg/kg of the compound of the present invention supplied additional information about its biological activity. The increase in production of IL-2 e IFN- by the culture of spleen cells from these animals indicate a modulation of the inflammatory-like response, which is fundamental for eradication of the infection.

[12] = tested on: Lysteria monocytogenes; test: Lethal Lysteria monocytogenes infection in Balb/c mice; assay type: in vivo
[13] = tested on: Ehrlich ascitic tumor; test: Ehrlich ascitic tumor in Balb/c mice; assay type: in vivo; settings: 5.0 mg/kg subcutaneous for 7 days
Protocol: Treatment with doses of 5.0 mg/kg of the compound of the present invention, subcutaneously administered for a period of 7 days to Balb/c mice which had been intraperitoneally inoculated with Ehrlich ascitic tumor inhibited 50% of the tumoral growth and increased by 50% the survival of the animals.

[14] = Immunotoxic properties in tufted capuchin monkey; set-up: species or system tufted capuchin monkey (Cebus apella); settings: in vivo
Protocol: f) Immunotoxic properties. […] The following organs were analyzed: bone marrow, spleen, lymph nodes, tonsils, and renal gland e Peyer's patch.
The spleen presented an increase of secondary follicles in the white pulp.
However, these cell alterations, found in the anatomopathological examination of the spleen from animals treated with the compound of the present invention, cannot be considered pathological in character; rather, they are due to immune system modulation caused by the use of the compound of the present invention.

[15] = tested on: spontaneous mammary carcinoma; test: Transplanted spontaneous mammary carcinoma in WAB/Not mice; assay type: in vivo; settings: 5.0 mg/kg intraperitoneal, 3 doses per week, 7 weeks
Text: as §3

[16] = tested on: parvovirus and distemper virus; test: Treatment of dogs carrying parvovirus and distemper virus; assay type: in vivo
Text: a) Antiviral properties through immune response modulation.

[17] = tested on: 53 tumor cell cultures representing 8 distinct tumor types and leukemia
Text: Cytotoxicity of the compound of the present invention was studied in the range of 10^−4 to 10^−8 M in 53 tumor cell cultures representing 8 distinct tumor types (lung, colon, central nervous system, melanoma, ovary, kidney, prostate and mammary) and leukemia.

[18] = Toxicity in Wistar rats, 90 days; assay type: in vivo; settings: doses up to 100 mg/kg
Text: as §1

[19] = tested on: Lysteria monocytogenes; test: In vitro antibacterial activity; assay type: cell-based
[20] = splenic cells stimulated by ConA

Substance: protein aggregate of ammonium and magnesium phospholinoleate-palmitoleate anhydride [compound of the present invention]
- animals with tumoral regression [1]: 50%
- toxic effects [2]: No toxic effects
- CFU-GM count in the spleen and splenomegalia ([3]; 5.0 mg/kg for 7 days): significant reduction
- myelopoiesis modulation ([3]; 5.0 mg/kg for 7 days before or after inoculation): particularly efficient
- number of granulocyte-macrophage precursor cells in the bone marrow (CFU-GM) ([3]; 0.5 to 5.0 mg/kg subcutaneous for 7 days): dose-dependent increase
- plasma t1/2 [4]: about 2 h
- interleukin-4 (IL-4) levels [5]: No alteration
- production of interleukin-10 (IL-10) ([5]; mice with tumors): significantly reduced
- gamma-interferon (IFN-) [5, 20]: significant increase
- interleukin-2 (IL-2) [5, 20]: significant increase
- cytotoxicity mediated by natural killer (NK) cells [6]: stimulated
- proliferative ability of lymphocytes [6]: stimulated
- toxic effects ([7]; single doses up to 2000 mg/kg): No toxic effects
- hematological, biochemical, physiological and anatomopathological parameters ([7]; stated jointly for the mouse, monkey and rat studies, treated vs control animals): No significant variation
- in vitro effects on growth and differentiation of granulocyte-macrophage precursor cells [8]: did not present in vitro effects
- response to treatment [9]: did not respond
- increase in survival [10]: 50%
- tumoral growth rate [10]: significant decrease
- production of IFN- [11]: increase
- production of IL-2 [11]: increase
- mice protected against lethal infection ([12]; pre-treatment 0.5 mg/kg subcutaneous for 7 days): 30%
- mice protected against lethal infection ([12]; pre-treatment 5.0 mg/kg subcutaneous for 7 days): 40%
- myeloprotection ([12]; pre-treatment subcutaneous for 7 days): promoted myeloprotection
- increase in survival [13]: 50%
- inhibition of tumoral growth [13]: 50%
- granulocytic series in the bone marrow [14]: slight activation
- hematocrit and hemoglobin [14]: minor decrease
- immunotoxic properties [14]: No immunotoxic properties
- lymphocyte population [14]: small increase
- red pulp of the spleen, anatomopathological examination [14]: Erytrophagocytosis was visible
- secondary follicles in the white pulp of the spleen [14]: increase
- total leucocytes, particularly polymorphonuclear neutrophils [14]: increase
- increase in survival [15]: 50%
- tumoral growth rate [15]: significant decrease
- white blood cell count ([16]; blood of treated dogs vs infected controls treated with saline only): significant increase
- recovery rate ([16]; dogs carrying parvovirus and distemper virus): higher recovery rate
- cytotoxicity for tumor cells [17]: did not display cytotoxicity
- toxic effects [18]: No toxic effects
- in vitro antibacterial activity [19]: does not display in vitro antibacterial activity
